Measurements from publication PMC10331583, “Control of fibrosis with enhanced safety via asymmetric inhibition of prolyl‐tRNA synthetase 1” (EMBO Molecular Medicine, 2023).
Several values for one entry are separate records, joined by “and”; a condition that tells them apart may be missing. Equal values may be shown once.

Assays:
[1] = system: WI‐26 VA4 cells stably expressing EV (empty vector); assay: Collagen ELISA in cells stably expressing EV; details: WI-26 VA4 EV; for Collagen level, single replicates: replicates of Experiments #1-#4; for Collagen level, average: average of 4 experiments
[2] = system: WI‐26 VA4 cells stably expressing PARS1 FA/EA/RL mutant; assay: Collagen ELISA in cells stably expressing PARS1 mutant; details: for Collagen level, average: average of 4 experiments; for Collagen level, single replicates: replicates of Experiments #1-#4
[3] = WI-26 VA4 Flag-PARS1 FA/EA/RL, 30 nM
[4] = WI-26 VA4 Flag-PARS1 FA/EA/RL, 100 nM
[5] = WI-26 VA4 Flag-PARS1 FA/EA/RL, 300 nM
[6] = WI-26 VA4 Flag-PARS1 FA/EA/RL, 1000 nM
[7] = WI-26 VA4 Flag-PARS1 FA/EA/RL, 3000 nM
[8] = WI-26 VA4 Flag-PARS1 FA/EA/RL, 10000 nM
[9] = WI-26 VA4 Flag-PARS1 FA/EA/RL, 30000 nM
[10] = WI-26 VA4 Flag-PARS1 FA/EA/RL, 100000 nM
[11] = WI-26 VA4 Flag-PARS1 FA/EA/RL, 300000 nM

O[C@H]1CCCN[C@@H]1CCCn1cnc2c(Cl)c(Cl)ccc21 [DWN12088]
Collagen level, single replicates ([1]; 30 nM): 103.80 % of control and 93.68 % of control and 118.18 % of control and 101.32 % of control and 113.71 % of control and 100.49 % of control and 110.94 % of control and 125.36 % of control and 99.68 % of control and 91.65 % of control and 118.14 % of control and 98.48 % of control
Collagen level, average ([1]; 100 nM): 97.93 % of control
Collagen level, single replicates ([1]; 100 nM): 104.52 % of control and 100.73 % of control and 92.07 % of control and 94.49 % of control and 97.76 % of control and 98.74 % of control and 108.25 % of control and 102.28 % of control and 98.65 % of control and 91.35 % of control and 85.38 % of control and 100.91 % of control
Collagen level, average ([1]; 300 nM): 81.48 % of control
Collagen level, single replicates ([1]; 300 nM): 91.09 % of control and 79.16 % of control and 74.69 % of control and 82.43 % of control and 80.75 % of control and 70.25 % of control and 88.16 % of control and 89.14 % of control and 75.64 % of control and 84.11 % of control and 76.95 % of control and 85.36 % of control
Collagen level, average ([1]; 1000 nM): 68.39 % of control
Collagen level, single replicates ([1]; 1000 nM): 76.13 % of control and 68.91 % of control and 67.97 % of control and 76.57 % of control and 67.70 % of control and 49.07 % of control and 76.54 % of control and 74.06 % of control and 46.15 % of control and 70.23 % of control and 69.64 % of control and 77.72 % of control
Collagen level, average ([1]; 3000 nM): 47.79 % of control
Collagen level, single replicates ([1]; 3000 nM): 46.50 % of control and 50.68 % of control and 52.48 % of control and 46.12 % of control and 48.12 % of control and 44.47 % of control and 46.33 % of control and 45.40 % of control and 47.63 % of control and 51.25 % of control and 49.30 % of control and 45.24 % of control
Collagen level, average ([1]; 10000 nM): 13.92 % of control
Collagen level, single replicates ([1]; 10000 nM): 13.28 % of control and 17.27 % of control and 16.23 % of control and 13.89 % of control and 12.05 % of control and 10.58 % of control and 12.31 % of control and 11.80 % of control and 11.03 % of control and 17.85 % of control and 17.12 % of control and 13.65 % of control
Collagen level, average ([1]; 30000 nM): 4.05 % of control
Collagen level, single replicates ([1]; 30000 nM): 4.24 % of control and 4.41 % of control and 4.74 % of control and 6.13 % of control and 2.65 % of control and 2.97 % of control and 3.41 % of control and 2.56 % of control and 2.84 % of control and 4.90 % of control and 3.97 % of control and 5.81 % of control
Collagen level, average ([1]; 100000 nM): 3.50 % of control
Collagen level, single replicates ([1]; 100000 nM): 2.77 % of control and 4.80 % of control and 4.00 % of control and 3.82 % of control and 3.27 % of control and 2.48 % of control and 2.45 % of control and 2.57 % of control and 2.65 % of control and 4.71 % of control and 3.89 % of control and 4.63 % of control
Collagen level, average ([1]; 300000 nM): 2.44 % of control
Collagen level, single replicates ([1]; 300000 nM): 2.49 % of control and 2.31 % of control and 2.89 % of control and 2.54 % of control
HillSlope, collagen level ([1]; four-parameter fit): -0.8641
LogIC50, collagen level ([1]; log of concentration in nM, four-parameter fit): 3.281
IC50 ([2]; Homo sapiens, WI26VA4, read-out: IC50, collagen level): 1.49 µM
CC50/collagen IC50 ([2]; PARS1 FA/EA/RL cells): 7.88
Relative (CC50)/(collagen IC50) ([2]; PARS1 FA/EA/RL cells, relative to EV): 0.63
Collagen level, average [2, 3]: 96.80 % of control
Collagen level, single replicates [2, 3]: 101.27 % of control and 106.03 % of control and 102.09 % of control and 97.52 % of control and 107.38 % of control and 87.30 % of control and 97.03 % of control and 100.22 % of control and 82.11 % of control and 93.95 % of control and 95.06 % of control and 91.64 % of control
Collagen level, average [2, 4]: 91.15 % of control
Collagen level, single replicates [2, 4]: 92.43 % of control and 98.06 % of control and 99.31 % of control and 91.83 % of control and 92.72 % of control and 85.46 % of control and 90.73 % of control (2×) and 82.66 % of control and 81.56 % of control and 88.43 % of control and 99.91 % of control
Collagen level, average [2, 5]: 79.61 % of control
Collagen level, single replicates [2, 5]: 87.41 % of control and 88.18 % of control and 78.49 % of control and 71.44 % of control and 76.98 % of control and 80.63 % of control and 81.90 % of control and 76.13 % of control and 73.84 % of control and 86.07 % of control and 78.20 % of control and 75.99 % of control
Collagen level, average [2, 6]: 62.53 % of control
Collagen level, single replicates [2, 6]: 72.91 % of control and 64.62 % of control and 69.50 % of control and 60.49 % of control and 52.43 % of control and 63.48 % of control and 72.89 % of control and 52.77 % of control and 57.64 % of control and 59.18 % of control and 66.74 % of control and 57.76 % of control
Collagen level, average [2, 7]: 26.56 % of control
Collagen level, single replicates [2, 7]: 25.97 % of control and 27.35 % of control and 25.49 % of control and 26.93 % of control and 30.39 % of control and 26.86 % of control and 25.02 % of control and 29.58 % of control and 24.14 % of control and 24.80 % of control and 25.63 % of control and 26.57 % of control
Collagen level, average [2, 8]: 4.37 % of control
Collagen level, single replicates [2, 8]: 4.38 % of control and 3.58 % of control and 3.17 % of control and 5.34 % of control and 4.53 % of control and 5.67 % of control and 3.18 % of control and 3.93 % of control and 4.88 % of control and 4.67 % of control and 4.47 % of control and 4.59 % of control
Collagen level, average [2, 9]: 2.20 % of control
Collagen level, single replicates [2, 9]: 2.07 % of control and 2.38 % of control and 2.98 % of control and 3.14 % of control and 2.40 % of control and 2.09 % of control and 1.49 % of control and 1.46 % of control and 1.88 % of control (2×) and 2.96 % of control and 1.71 % of control
Collagen level, average [2, 10]: 1.94 % of control
Collagen level, single replicates [2, 10]: 2.11 % of control and 2.24 % of control and 1.83 % of control and 2.90 % of control and 1.40 % of control and 1.89 % of control and 1.44 % of control and 1.33 % of control and 1.75 % of control and 1.90 % of control and 2.31 % of control and 2.15 % of control
Collagen level, average [2, 11]: 1.36 % of control
Collagen level, single replicates [2, 11]: 1.67 % of control and 0.92 % of control and 0.84 % of control and 1.94 % of control
HillSlope, collagen level ([2]; WI-26 VA4 Flag-PARS1 FA/EA/RL, four-parameter fit): -1.331
LogIC50, collagen level ([2]; WI-26 VA4 Flag-PARS1 FA/EA/RL, log of concentration in nM, four-parameter fit): 3.174
